Results taken from US5144029A, “Derivatives of 1-[3-(4-hydroxyphenyl) 1-hydroxy 1-propyl] benzene substituted in position 2 by an aminoalkyleneoxy chain, the method of preparing same and the application thereof to therapeutics” (Delalande S.A., priority 1988, dated 1992).

tested on: not listed separately; experiment: Acute toxicity (LD50) in mice, method of Litchfield and Wilcoxon; settings: mouse, in vivo, iv

Structure (SMILES) | LD50
COc1ccc(SC)c(OCCN2CCCCC2)c1C(O)CCc1ccc(O)cc1 (stereo not drawn) [compound 174] | 22 mg/kg
CCOc1ccc(OC)c(C(O)CCc2ccc(O)cc2)c1OCCN1CCCCC1 (stereo not drawn) [compound 164] | 17 mg/kg

tested on: basilar artery of a rabbit (contraction induced by KCl); experiment: Contraction of removed rabbit basilar artery in a hyperpotassic medium (calcium antagonistic activity); type: cell-based; settings: Oryctolagus cuniculus, KCl at 35 mmoles, read-out: IC50 (concentration which reduces by 50% the amplitude of the contraction induced by KCl)
Protocol: The protocol of this test is the following. The rabbit is anaesthetized with pentobarbital at a dose of 30 mg/kg then sacrificed by exsanguination and decapitated at the third cervical vertebra. The basilar artery is removed (1.5 cm) between the vertebral arteries and the Willis's polygon. The basilar artery is then cut in a spiral at an angle of 45°. It is fixed by means of a curved needle between an L shaped glass support and a movement sensor (Grass, type FT03). A mechanical tension of 500 mg is applied to the vessel, before letting it reach its equilibrium condition.
For a period of 1 hour, the vessel is rinsed every 20 minutes, until a stable level is obtained.
The tonic contraction following depolarization caused by KCl is dependent on the calcic movements for it is abolished by the suppression of calcium in the survival medium.
The concentrations (in nM) are measured which reduce by 50% the amplitude of the contraction induced by the KCl at 35 mmoles.

Structure (SMILES) | IC50
COc1ccc(C)c(C(O)CCc2ccc(O)cc2)c1OCCN1CCCCC1 (stereo not drawn) [compound 177] | 0.03 µM
CCCCCCCCOc1ccc(OC)c(OCCN2CCCCC2)c1C(O)CCc1ccc(O)cc1 (stereo not drawn) [compound 156] | > 0.1 µM
COc1ccc(OC(C)C)c(C(O)CCc2ccc(O)cc2)c1OCCN1CCCCC1 (stereo not drawn) [compound 154] | 0.013 µM
COc1ccc(SC)c(OCCN2CCCCC2)c1C(O)CCc1ccc(O)cc1 (stereo not drawn) [compound 174] | 0.027 µM
COc1ccc(O)c(OCCN2CCCCC2)c1C(O)CCc1ccc(O)cc1 (stereo not drawn) [compound 169] | > 0.1 µM
CCOc1ccc(OC)c(OCCN2CCCCC2)c1C(O)CCc1ccc(O)cc1 (stereo not drawn) [compound 160] | 0.006 µM
CCCCOc1ccc(OC)c(OCCN2CCCCC2)c1C(O)CCc1ccc(O)cc1 (stereo not drawn) [compound 150] | 0.1 µM
CCCOc1ccc(OC)c(OCCN2CCCCC2)c1C(O)CCc1ccc(O)cc1 (stereo not drawn) [compound 152] | 0.01 µM
COc1ccc(OC2CCCCC2)c(C(O)CCc2ccc(O)cc2)c1OCCN1CCCCC1 (stereo not drawn) [compound 158] | > 0.1 µM
CCOc1ccc(OC)c(C(O)CCc2ccc(O)cc2)c1OCCN1CCCCC1 (stereo not drawn) [compound 164] | 0.024 µM

Now from value to compound:

IC50 | Structure (SMILES)
> 0.1 µM | COc1ccc(OC2CCCCC2)c(OCCN2CCCCC2)c1C(O)CCc1ccc(O)cc1 (stereo not drawn) [compound 173]
> 0.1 µM | COc1ccc(OCc2ccccc2)c(C(O)CCc2ccc(O)cc2)c1OCCN1CCCCC1 (stereo not drawn) [compound 146]
0.031 µM | CCSc1ccc(OC)c(C(O)CCc2ccc(O)cc2)c1OCCN1CCCCC1 (stereo not drawn) [compound 175]
0.053 µM | C=CCOc1ccc(OC)c(C(O)CCc2ccc(O)cc2)c1OCCN1CCCCC1 (stereo not drawn) [compound 167]
> 0.1 µM | COc1ccc(OCC(F)(F)F)c(OCCN2CCCCC2)c1C(O)CCc1ccc(O)cc1 (stereo not drawn) [compound 137]
0.12 µM | CCCOc1ccc(OC)c(C(O)CCc2ccc(O)cc2)c1OCCN1CCCCC1 (stereo not drawn) [compound 166]
> 0.1 µM | COCCOc1ccc(OC)c(C(O)CCc2ccc(O)cc2)c1OCCN1CCCCC1 (stereo not drawn) [compound 171]
> 0.1 µM | COc1ccc(OCc2ccccc2)c(OCCN2CCCCC2)c1C(O)CCc1ccc(O)cc1 (stereo not drawn) [compound 168]
> 0.1 µM | COc1ccc(O)c(C(O)CCc2ccc(O)cc2)c1OCCN1CCCCC1 (stereo not drawn) [compound 148]
